Assay results from patent US9181305B2, “Exendin-4 peptide analogues” (SANOFI, priority 2012, dated 2015).

How the values were obtained:
[1] = target: T1, human GLP-1 receptor (hGLP-1 R) (Homo sapiens, UniProt P43220); experiment: cAMP response (HTRF) of HEK-293 cells stably expressing human GLP-1 receptor; format: cell-based; conditions: HEK-293 cells expressing human GLP-1 receptor, cAMP formation
T1 construct: expressed in transfected cells; host or cells: HEK-293
Outline: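 Detached HEK-293 cells stably expressing the receptor were suspended in HBSS with 20 mM HEPES, 0.1% BSA and 2 mM IBMX. Test compound was added for 30 min at room temperature, and cellular cAMP was quantified by HTRF.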

[2] = system: female diet-induced obese C57BL/6NCrl mice; experiment: Single subcutaneous treatment, blood glucose in diet-induced obese mice; format: in vivo; conditions: single s.c. 100 μg/kg, fed DIO mice (9 months on high-fat diet)
Protocol: Female C57BL/6NCrl mice were housed in groups (n=8) and had ad-libitum access to high-fat diet and water. Initial blood samples were taken just before administration (s.c.) of vehicle (phosphate buffer solution) or the exendin-4 analogue (e.g. SEQ ID NO: (7)) (100 μg/kg in phosphate buffer) in fed DIO mice. The volume of administration was 5 mL/kg. The animals had access to high-fat diet and water during the experiment, food consumption was determined at all time points for blood sampling. Blood glucose levels were measured at t=0.5 h, t=1 h, t=2 h, t=4 h, t=6 h, t=8 h, and t=24 h. Blood sampling was performed by tail incision without anaesthesia. Statistical analyses were performed with Everstat 6.0 by repeated measures two-way ANOVA and Dunnetts post-hoc analyses. Differences were considered statistically significant at the p<0.05 level.

physchem = format: physicochemical
female NMRI-mice [3] = experiment: Gastric emptying and intestinal passage in mice; format: in vivo; conditions: 0.02 mg/kg s.c., 30 min prior to coloured bolus; p<0.0001
Protocol: Female NMRI-mice of a body weight between 20 and 30 g were used. Mice were adapted to housing conditions for at least one week. Mice were overnight fasted, while water remained available all the time. On the study day, mice were weighed, single-caged and allowed access to 500 mg of feed for 30 min, while water was removed. At the end of the 30 min feeding period, remaining feed was removed and weighed. 60 min later, a coloured, non-caloric bolus was instilled via gavage into the stomach. The test product or its vehicle in the control group was administered subcutaneously, to reach Cmax when coloured bolus was administered. After another 30 min, the animals were sacrificed and the stomach and the small intestine prepared. The filled stomach was weighed, emptied, carefully cleaned and dried and reweighed. The calculated stomach content indicated the degree of gastric emptying. The small intestine was straightened without force and measured in length. Then the distance from the gastric beginning of the gut to the tip of the farthest travelled intestinal content bolus was measured. The intestinal passage was given as relation in percent of the latter distance and the total length of the small intestine. Statistical analyses were performed with Everstat 6.0 by Student's T-Test. Differences were considered statistically significant at the p<0.05 level. […]

female NMRI-mice [4] = experiment: Automated assessment of feed intake in mice (22 hours); format: in vivo
Protocol: Female NMRI-mice of a body weight between 20 and 30 g were used. Mice were adapted to housing conditions for at least one week and for at least one day single-caged in the assessment equipment, when basal data were recorded simultaneously. On the study day, test product was administered subcutaneously close to the lights-off phase (12 h lights off) and assessment of feed consumption was directly started afterwards. Assessment included continued monitoring (every 30 min) over 22 hours. Repetition of this procedure over several days was possible. Restriction of assessment to 22 hours was for practical reason to allow for reweighing of animals, refilling of feed and water and drug administration between procedures. Results could be assessed as cumulated data over 22 hours or differentiated to 30 min intervals. Statistical analyses were performed with Everstat 6.0 by two-way ANOVA on repeated measures and Dunnetts post-hoc analyses. Differences were considered statistically significant at the p<0.05 level. Fed female NMRI-mice, weighing on average 27 g, were administered 0.01 or 0.1 mg/kg of SEQ ID NO: (7) or phosphate buffered saline (vehicle control) subcutaneously, directly prior to start of feeding monitoring. Lights-off phase (dark phase) started 4 hours later.

T1 sequence (P43220 24-463): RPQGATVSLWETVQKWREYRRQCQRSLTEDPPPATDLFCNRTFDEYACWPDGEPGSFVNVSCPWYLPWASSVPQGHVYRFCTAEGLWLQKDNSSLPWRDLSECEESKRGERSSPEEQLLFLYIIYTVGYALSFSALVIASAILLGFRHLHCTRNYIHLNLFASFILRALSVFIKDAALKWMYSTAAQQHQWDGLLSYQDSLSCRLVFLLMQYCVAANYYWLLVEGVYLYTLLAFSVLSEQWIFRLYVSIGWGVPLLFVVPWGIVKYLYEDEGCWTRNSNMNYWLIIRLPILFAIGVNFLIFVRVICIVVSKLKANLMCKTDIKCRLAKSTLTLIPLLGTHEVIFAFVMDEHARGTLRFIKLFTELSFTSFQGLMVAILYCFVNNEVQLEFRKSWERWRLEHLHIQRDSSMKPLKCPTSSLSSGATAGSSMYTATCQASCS

With `CCCCCCCCCCCCCCCC(=O)N[C@@H](CCC(=O)NCCCC[C@H](NC(=O)[C@H](CO)NC(=O)[C@@H]1CCCN1C(=O)[C@@H]1CCCN1C(=O)[C@@H]1CCCN1C(=O)[C@H](C)NC(=O)CNC(=O)[C@H](CO)NC(=O)[C@H](CO)NC(=O)[C@@H]1CCCN1C(=O)CNC(=O)CNC(=O)[C@H](CC(N)=O)NC(=O)[C@H](CCCCN)NC(=O)[C@H](CC(C)C)NC(=O)[C@H](Cc1c[nH]c2ccccc12)NC(=O)[C@H](CCC(=O)O)NC(=O)[C@@H](NC(=O)[C@H](Cc1ccccc1)NC(=O)[C@H](CC(=O)O)NC(=O)[C@H](CCC(N)=O)NC(=O)[C@H](C)NC(=O)[C@H](CCCNC(=N)N)NC(=O)[C@H](CCCNC(=N)N)NC(=O)[C@H](CO)NC(=O)[C@H](CC(=O)O)NC(=O)[C@H](CCSC)NC(=O)[C@H](CCC(N)=O)NC(=O)[C@H](CCCCN)NC(=O)[C@H](CO)NC(=O)[C@H](CC(C)C)NC(=O)[C@H](CC(=O)O)NC(=O)[C@H](CO)NC(=O)[C@@H](NC(=O)[C@H](Cc1ccccc1)NC(=O)[C@@H](NC(=O)CNC(=O)[C@H](CCC(N)=O)NC(=O)[C@@H](CO)NC(=O)[C@@H](N)Cc1c[nH]cn1)[C@@H](C)O)[C@@H](C)O)[C@@H](C)CC)C(N)=O)C(=O)O` [(7)] the EC50 [1] was 5.2 pM, the “blood glucose over 24 h compared to vehicle-treated control animals” value [2] was “significantly decreased” and the solubility at 2 h (physchem; pH 4.5) was > 1000 µg/mL. For the same compound, the solubility at 2 h (physchem; pH 7.4) was > 1000 µg/mL, the “reduction of intestinal passage” value (female NMRI-mice [3]) was 54% and the “reduction of feed intake at the end of the study (22 hours)” value (female NMRI-mice [4]; 0.01 mg/kg s.c., p=0.0027) was 17%. For the same compound, the “reduction of feed intake at the end of the study (22 hours)” value (female NMRI-mice [4]; 0.1 mg/kg s.c., p<0.0001) was 37%.
